In patent US7220784B2, “Substituted stilbenes and their reactions” (priority 2000, dated 2007):
Like-named read-outs stand apart in the source and are kept apart here.

What was measured:
A2780 = assay: Cytotoxicity/growth inhibition assay (MTT), A2780; format: cell-based
Procedure: (§1) The following assays (1–5) were carried out as described in our paper (Woods, et al, British Journal of Cancer, 71, 705–711 (1995)). In addition to the cell lines described in this paper, other established human cell lines (K562, HUVEC, H460, BE, H529, and HT29) were used in the cytotoxicity/growth inhibition assay. • (1) Inhibition of tubulin assembly. The figure quoted is the concentration required to reduce assembly of tubulin by 50%. Tubulin assembly is monitored by light scatter/absorption at 350 nm.
(§2) (2) Competition for the colchicine binding site on tubulin. The figure quoted represents the % of ^3H-colchicine bound following co-incubation of test compound and ^3H-cochicine with isolated tubulin. Where ester pro-drugs were used the experiments were carried out in the presence and absence of porcine liver esterase. • (3) Cytotoxicity/growth inhibition assay. This was carried out by the MTT assay. • (4) Permeability (shape-change) assay in endothelial cells. This was carried out using a method based on that of Watts et al. (Anticancer Res., 17, 71–75, (1997)). This involved the diffusion of a fluorescently labelled dextran through a barrier of endothelial cells (HUVEC) grown to confluence on a porous membrane. The effect of agents to alter the shape of these cells results in an increase in the permeability of the cells to the dye. The figure represents the increase in permeability over control cultures when drug is added (30 minutes, 1 mM.). • (5) Experiments to study the anti-vascular effects of these agents were carried out as described previously by our group. (Zhao et al, European Journal of Nuclear Medicine, 26, 231–238 (1999)). The anti-vascular effects of the agents were monitored by either positron emission tomography (PET) or by histologogical examination following treatment of mice bearing T50:80 murine breast tumours, or H460 human lung tumours. • (6) Anti-tumour efficacy of agents was determined in xenografts of H460 human lung cancer. Animals (n=5) were trated either with 5 daily injections and tumour size measured with time following treatment. • (7) The pharmacokinetic profile of agents was determined in mice following injection with drug. Blood was taken at various times following treatment and analysed by HPLC with UV detection. The HPLC conditions were isocratic using a 5 micron C18 BDS column (150×4.6) ad eluting with 75% MeOH in water with a detection wavelength of 290 nm. […] (AND(P)H:quinone oxidoreductace, EC 1.6.99.2). DT-diaphorase is an enzyme over-expressed in a number of human tumours. […] This two-electron reducing enzyme can be used to selectively activate prodrugs within cancers which over-express the enzyme.

A2780/ADR = assay: Cytotoxicity/growth inhibition assay (MTT), A2780/ADR; format: cell-based
Procedure: as §1, §2

tubulin [1] = system: T1, tubulin; assay: Inhibition of tubulin assembly; format: biochemical; conditions: concentration required to reduce assembly of tubulin by 50%
T1 construct: other: concentration required to reduce assembly of tubulin by 50%
Procedure: as §1

[2] = system: colchicine binding site on tubulin; assay: Competition for the colchicine binding site on tubulin; conditions: % of 3H-colchicine bound; for Colchicine displacement protein:drug 1:10 (with esterase): with porcine liver esterase
Procedure: as §2, with “This was carried out using a method based on that of Watts et al. (Anticancer Res., 17, 71–75, (1997)).” left out, “(Zhao et al, European Journal of Nuclear Medicine, 26, 231–238 (1999)).” left out, “detection.” for “detection. The HPLC conditions were isocratic using a 5 micron C18 BDS column (150×4.6) ad eluting with 75% MeOH in water with a detection wavelength of 290 nm.”

[3] = system: K562 human myelogeneous leukaemia cell line; assay: Cytotoxicity/growth inhibition assay (MTT), K562; format: cell-based
Summary of the method: (§3)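 Growth inhibition of P388 murine and K562 human leukaemia cells measured by MTT assay.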

[4] = system: colchicine binding site on tubulin; assay: Competition for the colchicine binding site on tubulin
HUVEC = assay: Growth inhibition studies using HUVEC; format: cell-based, human; conditions: Homo sapiens, HUVEC
Procedure: as §1, §2

tubulin [5] = assay: MA IC50 (Tables 12-26, abbreviation not defined); format: biochemical
tubulin [6] = assay: CD IC50 (Tables 12-26, abbreviation not defined); format: binding
K562 = K562 cell cycle analysis; format: cell-based, human; conditions: K562; for % of cells in G0–G1 / % of cells in G2-M / % of cells in S phase: of cells with DNA content = 2 n or >2 n
[7] = system: P388 murine leukaemia cell line; assay: Cytotoxicity/growth inhibition assay (MTT), P388; format: cell-based; conditions: Mus musculus, P388, MTT
Summary of the method: as §3

[8] = Homo sapiens, A2780, read-out: IC50 (nM) A2780
[9] = Homo sapiens, K562, MTT, read-out: K562 IC50
[10] = Homo sapiens, A2780, read-out: A2780 IC50
[11] = Homo sapiens, K562, Table 22, read-out: MTT (K582) IC50

| Compound | IC50 (A2780; [8]) [nM] | IC50 (A2780/ADR; A2780 ADR) [nM] | IC50 (tubulin [1]) [µM] | Colchicine displacement protein:drug 1:10 (with esterase) [2] [%] | Colchicine displacement protein:drug 1:10 (without esterase) [2] [%] | IC50 [3, 9] [nM] | IC50 (HUVEC) [nM] | IC50 (tubulin [5]) [nM] | IC50 (tubulin [6]) [nM] | % of cells with DNA content <2 n (K562) [%] | % of cells in G0–G1 (K562) [%] | % of cells in G2-M (K562) [%] | % of cells in S phase (K562) [%] | further results |
| --- | --- | --- | --- | --- | --- | --- | --- | --- | --- | --- | --- | --- | --- | --- |
| COc1ccc(C=Cc2cc(OC)c(OC)c(OC)c2)cc1OC(=O)C(C)NC(=O)OC(C)(C)C (stereo not shown) [Compound 39] | 2.7 | 4.6 | 8 | 2 | 77 |  |  |  |  |  |  |  |  |  |
| CCC(C)C(NC(=O)OC(C)(C)C)C(=O)Oc1cc(C=Cc2cc(OC)c(OC)c(OC)c2)ccc1OC (stereo not shown) [Compound 34] | > 60 | > 60 | 6.2 | 2 | 65 |  |  |  |  |  |  |  |  |  |
| COc1ccc(C=Cc2cc(OC)c(OC)c(OC)c2)c(F)c1F [Compound 00-105] |  |  | > 100 |  |  | 20 |  |  |  |  |  |  |  | Colchicine % Inhibition [4]: 3.6% |
| COc1ccc(/C=C\c2cc(OC)c(OC)c(OC)c2)cc1OC(=O)CNC(=O)OC(C)(C)C [Compound 35] | 4.3 | 5 | 7.5 | 4 | 65 |  |  |  |  |  |  |  |  |  |
| COc1ccc(/C=C\c2cc(C)c(C)c(C)c2)cc1 [Compound 117] |  |  |  |  |  | 310 | > 1000 | 650 | > 25000 | 15 | 3 | 87 | 10 |  |
| COc1ccc(C=Cc2cc(OC)c(OC)c(OC)c2)cc1OC(=O)C(Cc1ccccc1)NC(=O)OC(C)(C)C (stereo not shown) [Compound 33, Boc-Phenylalanine Combretastatin A-4] | 2.8 | 4 | 3.6 | 2 | 92 |  |  |  |  |  |  |  |  |  |
| COc1ccc(/C=C\c2cc(C)c(C)c(C)c2)cc1F [Compound 120] |  |  |  |  |  | 140 | 460 | 700 | 10000 | 23 | 6 | 77 | 17 |  |
| COc1ccc(/C=C\c2cc(OC)c(OC)c(OC)c2)cc1OC(=O)C(Cc1ccc(O)cc1)NC(=O)OC(C)(C)C (stereo not shown) [Compound 44] |  |  |  |  |  |  |  |  |  |  |  |  |  | IC50 (A2780; read-out: IC50 (nM) A2780): 4.5 nM; IC50 (A2780/ADR): 6.4 nM |
| COc1cc(C=Cc2ccc(N(C)C)cc2)cc(OC)c1OC [Compound 97-65] |  |  | 100 |  |  |  | 350 |  |  |  |  |  |  | IC50 (A2780; [10]): 95 nM; IC50 [7]: 180 nM |
| COc1ccc(C=Cc2cc(OC)c(OC)c(OC)c2)cc1OC(=O)C1CCCN1C(=O)OC(C)(C)C (stereo not shown) [Compound 41] | 29 | 39 | 9 | 2 | 78 |  |  |  |  |  |  |  |  |  |
| COc1ccc(/C=C\c2cc(OC)c(OC)c(OC)c2)cc1F [Compound 90] |  |  |  |  |  | 10 | 4 | 85 | 2800 | 16 | 5 | 79 | 16 |  |
| CCC(=Cc1ccc(OC)c(O)c1)c1cc(OC)c(OC)c(OC)c1 [Compound 219] |  |  |  |  |  |  | 220 | 130 | > 25000 | 24 | 7 | 74 | 19 | IC50 [3, 11]: 120 nM |
| COc1ccc(/C=C\c2cc(OC)c(OC)c(OC)c2)cc1OC(=O)[C@@H](Cc1c[nH]c2ccccc12)NC(=O)OC(C)(C)C [Compound 43] | 3.3 | 3.8 | 3 | 2 |  |  |  |  |  |  |  |  |  |  |
| COc1ccc(C=Cc2cc(OC)c(OC)c(OC)c2)cc1OC(=O)C(Cc1c[nH]c2ccccc12)NC(=O)OC(C)(C)C (stereo not shown) [Compound 36] | 1.7 | 2 | 4 |  |  |  |  |  |  |  |  |  |  |  |
| COc1ccc(/C=C\c2cc(C)c(C)c(C)c2)cc1O [Compound 133] |  |  |  |  |  |  | 50 | 120 | 10000 | 6 | 3 | 91 | 6 | IC50 ([3]; MTT, read-out: K562 IC50): 20 nM |
| COc1ccc(/C=C\c2cc(OC)c(OC)c(OC)c2)cc1OC(=O)[C@@H](CCSC)NC(=O)OC(C)(C)C [Compound 42] | 2.9 | 2.9 | 3.5 | 2 |  |  |  |  |  |  |  |  |  |  |
| COc1ccc(C=Cc2cc(OC)c(OC)c(OC)c2)cc1OC(=O)C(CCSC)NC(=O)OC(C)(C)C (stereo not shown) [Compound 37] | 6.7 | 9.1 | 6 | 2 | 88 |  |  |  |  |  |  |  |  |  |
| COc1ccc(C=C(C)c2cc(OC)c(OC)c(OC)c2)cc1 [Compound 213] |  |  |  |  |  |  | 350 | 1300 | > 25000 | 23 | 5 | 73 | 21 | IC50 [3, 11]: 100 nM |
| CCOc1cc(C=Cc2ccc(OC)c(F)c2)cc(OCC)c1OCC [Compound 251] |  |  |  |  |  | 44 | 190 | 1250 | > 25000 | 24 | 7 | 75 | 18 |  |
| COc1ccc(C=Cc2cc(OC)c(OC)c(OC)c2)cc1OC(=O)C(CC(C)C)NC(=O)OC(C)(C)C (stereo not shown) [Compound 38] | 14 | 27 | 7.8 |  | 72 |  |  |  |  |  |  |  |  |  |
| COc1ccc(/C=C\c2cc(OC)c(OC)c(OC)c2)cc1OC(=O)C(Cc1c[nH]cn1)NC(=O)OC(C)(C)C (stereo not shown) [Compound 40] |  |  | 7 | 4 | 2 |  |  |  |  |  |  |  |  | IC50 (A2780; read-out: IC50 (nM) A2780): 2.2 nM; IC50 (A2780/ADR): 4.3 nM |
| CCOc1cc(C=Cc2ccc(OC)c(O)c2)cc(OCC)c1OCC [Compound 253] |  |  |  |  |  | 18 | 50 | 500 | 15500 | 4 | 3 | 92 | 6 |  |
| COc1cc(C=Cc2cc(F)c(OC)c(F)c2)cc(OC)c1OC [Compound 00-82] |  |  | 7.2 |  |  | 50 |  |  |  |  |  |  |  | IC50 (A2780; [10]): 60 nM; Colchicine % Inhibition [4]: 39.5% |
